# How the values were obtained:
# Format in all cases: in vivo
# [1] = tested on: Potato, cultivar Eva; assay: Yield of Eva potato treated foliarly with trehalose 4 weeks before harvest; details: for pounds per graded size #4 (>10 ounces): control 0.0; for pounds per graded size #1 (0 to 4 ounces): control 0.8; for pounds per graded size #2 (>4 ounces) / pounds per graded size #3 (>6 ounces): control 6.8; for pounds Total: control 14.4
# [2] = tested on: Potatoes, cultivar Eva; assay: Reducing sugar content of potato tubers after foliar trehalose, cultivar Eva; details: for Reducing Sugar Content of Tubers (absorbance at 570 nm): 100 grams/acre foliar, n = 16
# Method: Potatoes, cultivar Eva in Pennsylvania, were treated either 4 or 2 weeks before harvest with a foliar application of trehalose at the rate of 100 grams per acre. The potatoes were harvested and shipped to College Station, Texas for analysis of reducing sugars. […] (Table 4).
# [3] = tested on: Sugar Cane; assay: Trehalose on sugar per acre from sugar cane; details: 4 weeks before harvest
# Method: Sugar Cane, grown in southern Texas was treated 4 weeks before harvest with an aqueous solution of Trehalose at the rate of 450 grams per acre, gave an extra 897 pounds of sugar from sugar cane production.
# [4] = tested on: Potatoes, cultivar Snowden; assay: Reducing sugar content of potato tubers after foliar trehalose, cultivar Snowden; details: 4 or 2 weeks before harvest, inversely proportional to the dose of trehalose
# Method: Potatoes, cultivar Snowden in Wisconsin, were treated either 4 or 2 weeks before harvest with a foliar application of trehalose at the rate of 100 grams per acre. The potatoes were harvested and shipped to College Station, Tex. for analysis of reducing sugars.
# [5] = tested on: winter wheat; assay: Foliar trehalose on yield of winter wheat; details: 100 g/a Foliar, 4 weeks before harvest; control 0%; highly significant
# Method: Wheat, grown in Ontario Canada, was treated foliarly with an aqueous solution of trehalose at the rate of 100 grams per acre, 4 weeks before harvest.
# [6] = tested on: Sugar Beets; assay: Foliar trehalose on sugar beet yield and quality
# Source text: Sugar Beets were foliarly treated with Trehalose at the rate of 300 grams per acre in Yuma Colo.
# [7] = tested on: Field corn, Cultivar Dekalb C6805; assay: Foliar trehalose on field corn yield, cultivar Dekalb C6805; details: for Yield of field corn (bushels per acre): control 155; for Weight of 1,000 kernels (grams): control 261
# Method: Field corn, Cultivar Dekalb C6805, was treated foliarly with an aqueous solution of trehalose at the rate of 100 grams per acre, either at the […] stage of growth or 3 weeks before the […] stage of growth, in southern Texas. Field corn yields were increased with this cultivar from 155 bushels per acre to an unprecedented 337 bushels per acre for this locale, characterized by hot, windy climate and poor soils and high levels of pests including disease and insects. Seed weights of the corn kernels were increased.
# [8] = tested on: Field Corn, cultivar Asgrow 7371; assay: Foliar trehalose on field corn yield, cultivar Asgrow 7371; details: trehalose 100 grams per acre foliar, 4 and 5 weeks after V16 stage
# Source text: Field Corn, cultivar Asgrow 7371, was twice treated foliarly before harvest with an aqueous solution of trehalose at the rate of 100 grams of trehalose per acre, at 4 weeks after the V16 stage of growth, and once again foliarly at the same rate at 5 weeks after the V16 stage of growth.
# [9] = 100 grams per acre foliar at the V16 stage of growth
# [10] = 100 grams per acre foliar, 3 wk prior to V16 growth stage
structure (smiles),measurement,setting,value
"OC[C@H]1O[C@H](O[C@H]2O[C@H](CO)[C@@H](O)[C@H](O)[C@H]2O)[C@H](O)[C@@H](O)[C@@H]1O [Trehalose, trehalose]",Potato yield,[1]; 100 grams per acre foliar,increased yields
same,pounds per graded size #4 (>10 ounces),[1]; Trehalose 25 g foliar,0.0 pounds
same,pounds per graded size #1 (0 to 4 ounces),[1]; Trehalose 25 g foliar,1.1 pounds
same,pounds per graded size #2 (>4 ounces),[1]; Trehalose 25 g foliar,7.2 pounds
same,pounds per graded size #3 (>6 ounces),[1]; Trehalose 25 g foliar,8.6 pounds
same,pounds Total,[1]; Trehalose 25 g foliar,16.9 pounds
same,pounds per graded size #4 (>10 ounces),[1]; Trehalose 50 g foliar,0.0 pounds
same,pounds per graded size #1 (0 to 4 ounces),[1]; Trehalose 50 g foliar,0.9 pounds
same,pounds per graded size #2 (>4 ounces),[1]; Trehalose 50 g foliar,7.0 pounds
same,pounds per graded size #3 (>6 ounces),[1]; Trehalose 50 g foliar,8.3 pounds
same,pounds Total,[1]; Trehalose 50 g foliar,16.2 pounds
same,pounds per graded size #4 (>10 ounces),[1]; Trehalose 100 g foliar,0.4 pounds
same,pounds per graded size #1 (0 to 4 ounces),[1]; Trehalose 100 g foliar,0.8 pounds
same,pounds per graded size #2 (>4 ounces),[1]; Trehalose 100 g foliar,7.4 pounds
same,pounds per graded size #3 (>6 ounces),[1]; Trehalose 100 g foliar,8.4 pounds
same,pounds Total,[1]; Trehalose 100 g foliar,17.0 pounds
same,Reducing sugars in the potato tubers,"[2]; 100 grams per acre foliar, 4 weeks before harvest",decreased
same,Reducing Sugar Content of Tubers (absorbance at 570 nm),"[2]; 2 weeks before Harvest, control 0.200 ± 0.08",0.211 ± 0.12 absorbance at 570 nm
same,Reducing Sugar Content of Tubers (absorbance at 570 nm),"[2]; 4 weeks before Harvest, control 0.217 ± 0.15",0.125 ± 0.03 absorbance at 570 nm
same,increase in lb of sugar per acre from sugar cane,"[3]; 450 g/a Foliar, control 0",897 lb
same,extra sugar from sugar cane production,[3]; 450 grams per acre,897 pounds
same,Reducing sugar content of potato tubers,[4],decrease in reducing sugar content
same,increase in yield of winter wheat,[5],"9.5%, highly significant"
same,Percent SLM,"[6]; 300 g/a Foliar, 2 weeks before harvest, control 1.85",1.22%
same,Percent Sugar,"[6]; 300 g/a Foliar, 2 weeks before harvest, control 15.83%",17.23%
same,Sugar Beet yield (tons per acre),"[6]; 300 g/a Foliar, 2 weeks before harvest, control 27.79",28.4 tons per acre
same,Pounds of Sugar per acre,"[6]; 300 g/a Foliar, 2 weeks before harvest, control 8797",9770 Pounds of Sugar per acre
same,Extra sugar per acre transferred to the beets,[6]; 300 grams per acre foliar,nearly half an extra ton of sugar per acre
same,% SLM,"[6]; 300 grams per acre, 2 weeks before harvest",decided reduction
same,Seed weights of the corn kernels,[7]; 100 grams per acre foliar,increased
same,Yield of field corn (bushels per acre),[7]; [9],311 bushels per acre
same,"Weight of 1,000 kernels (grams)",[7]; [9],286 grams
same,Yield of field corn (bushels per acre),[7]; [10],327 bushels per acre
same,"Weight of 1,000 kernels (grams)",[7]; [10],294 grams
same,Field corn yield,"[7]; 100 grams per acre foliar, V16 or 3 weeks before V16, increased from 155",337 bushels per acre
same,Yield increase by treatment of trehalose,[8],up to 125%
same,Yield of field corn (bushels per acre),"[8]; Cultivar 7371, control 103 bu/acre",231 bu/acre
same,"Weight of 1,000 kernels (grams)","[8]; Cultivar 7371, control 288 grams",368 grams
